Reference: PubChem BioAssay AID248 (DTP/NCI, 2004)
Toxic doses and inconclusive results are not listed.

Tested on: L1210 leukemia ip in BDF1 mice, survival T/C
Test: NCI In Vivo Anticancer Drug Screen. Data for tumor model L1210 Leukemia (intraperitoneal) in B6D2F1 (BDF1) mice
Conditions: endpoint: mean survival time, schedule: Q01DX001 (ip), vehicle: saline, higher = longer survival
Procedure, shortened: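 Survival endpoint. Drug-treated group vs vehicle group, expressed as T divided by C. Tumor passaged by transplantation.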

CC1c2cc(O)c(O)cc2CCN1C (configuration not stated)
T/C (dose: 75.0 mg/kg/injection): 104 % of control | T/C (dose: 150.0 mg/kg/injection): 110 % of control
